Test results published in patent publication US7468394B1, “Sterile pharmaceutical composition and process for a solution of propofol emulsion having microbial growth retardation” (priority 2003, dated 2008).

Text: Propofol has limited water solubility, however it is easy to dissolve in soybean oil. As such, it must be incorporated with a solubilizing agent, surfactants or solvents to generate oil-in-water emulsions. The oil component of the emulsion is contained within a shell of the surfactants (egg lecithin), thus forming a “sunflower” structure, which can be seen in Table 1. Currently marketed propofol products are available as oil-in-water emulsions.

CC(C)c1cccc(C(C)C)c1O [propofol, 2,6-Diisopropylphenol]
partition coefficient of propofol between soybean oil and water: 4,220
